Laboratory results published in ChEMBL document CHEMBL6092222 (J Med Chem, 2024).
In brackets after ≈: the same amount, converted by molar mass. One block for each compound: values may come before it.

Columns and labels:
[1] = Lipophilicity, logP of compound by HPLC analysis; type: physicochemical
[2] = Dissociation constant, pKa of compound; type: physicochemical
[3] = Solubility of compound at pH 1 by reversed-phase UPLC analysis; type: physicochemical; conditions: buffer
[4] = Solubility of compound at pH 2 by reversed-phase UPLC analysis; type: physicochemical; conditions: buffer
[5] = Solubility of compound at pH 3 by reversed-phase UPLC analysis; type: physicochemical; conditions: buffer
[6] = Solubility of compound at pH 4 by reversed-phase UPLC analysis; type: physicochemical; conditions: buffer
[7] = Solubility of compound at pH 5 by reversed-phase UPLC analysis; type: physicochemical; conditions: buffer
[8] = Solubility of compound at pH 6.5 by reversed-phase UPLC analysis; type: physicochemical; conditions: buffer
[9] = Solubility of compound at pH 7.4 by reversed-phase UPLC analysis; type: physicochemical; conditions: buffer
[10] = Solubility of compound in FeSSIF at pH 5 by reversed-phase UPLC analysis; type: physicochemical
[11] = Solubility of compound in FaSSIF at pH 6.5 by reversed-phase UPLC analysis; type: physicochemical
[12] = Apparent permeability across apical to basal side in human Caco-2 cells; type: ADME, cell-based
[13] = Efflux ratio of apparent permeability across basal to apical side over apical to basal side in human Caco-2 cells; type: ADME, cell-based
[14] = Permeability of compound by PAMPA; type: ADME; conditions: read-out: permeability
[15] = Protein binding in human plasma assessed as free fraction; type: ADME, cell-free
[16] = Protein binding in rat plasma assessed as free fraction; type: ADME, cell-free
[17] = Protein binding in monkey plasma assessed as free fraction; type: ADME, cell-free, Macaca mulatta; conditions: rhesus monkey
[18] = Inhibition of STAT5 phosphorylation in IFN-gamma-treated human whole blood; type: tissue-based
[19] = Oral bioavailability in mouse; type: ADME, organism-based; conditions: in vivo
[20] = Oral bioavailability in rat; type: ADME, organism-based; conditions: in vivo
[21] = Oral bioavailability in monkey; type: ADME, organism-based, Macaca mulatta; conditions: rhesus monkey, in vivo
[22] = Oral bioavailability in mouse at 50 mg/kg administered as suspension; type: ADME, organism-based; conditions: in vivo
[23] = Cmax in Sprague-Dawley rat at 10 mg/kg, po measured for 24 hrs by UPLC-MS/MS analysis; type: ADME, organism-based; conditions: in vivo
[24] = Cmax in Pentagastrine-pretreated Sprague-Dawley rat at 10 mg/kg, po measured for 24 hrs by UPLC-MS/MS analysis; type: ADME, organism-based; conditions: in vivo
[25] = Cmax in Famotidine-pretreated Sprague-Dawley rat at 10 mg/kg, po measured for 24 hrs by UPLC-MS/MS analysis; type: ADME, organism-based; conditions: in vivo
[26] = Tmax in Sprague-Dawley rat at 10 mg/kg, po measured for 24 hrs by UPLC-MS/MS analysis; type: ADME, organism-based; conditions: in vivo
[27] = Tmax in Pentagastrine-pretreated Sprague-Dawley rat at 10 mg/kg, po measured for 24 hrs by UPLC-MS/MS analysis; type: ADME, organism-based; conditions: in vivo
[28] = Tmax in Famotidine-pretreated Sprague-Dawley rat at 10 mg/kg, po measured for 24 hrs by UPLC-MS/MS analysis; type: ADME, organism-based; conditions: in vivo
[29] = AUC (total) in Sprague-Dawley rat at 10 mg/kg, po measured for 24 hrs by UPLC-MS/MS analysis; type: ADME, organism-based; conditions: in vivo
[30] = AUC (total) in Pentagastrine-pretreated Sprague-Dawley rat at 10 mg/kg, po measured for 24 hrs by UPLC-MS/MS analysis; type: ADME, organism-based; conditions: in vivo
[31] = AUC (total) in Famotidine-pretreated Sprague-Dawley rat at 10 mg/kg, po measured for 24 hrs by UPLC-MS/MS analysis; type: ADME, organism-based; conditions: in vivo
[32] = Oral bioavailability in Sprague-Dawley rat at 10 mg/kg measured for 24 hrs by UPLC-MS/MS analysis; type: ADME, organism-based; conditions: in vivo
[33] = Oral bioavailability in Pentagastrine-pretreated Sprague-Dawley rat at 10 mg/kg measured for 24 hrs by UPLC-MS/MS analysis; type: ADME, organism-based; conditions: in vivo
[34] = Oral bioavailability in Famotidine-pretreated Sprague-Dawley rat at 10 mg/kg measured for 24 hrs by UPLC-MS/MS analysis; type: ADME, organism-based; conditions: in vivo
[35] = physchem; conditions: aqueous buffer, pH 1
Description: Solubility of compound in aqueous buffer at pH 1 at 25 degreeC by reversed phase-HPLC analysis

[36] = physchem; conditions: aqueous buffer, pH 4
Description: Solubility of compound in aqueous buffer at pH 4 at 25 degreeC by reversed phase-HPLC analysis

[37] = physchem; conditions: aqueous buffer, pH 6.5
Description: Solubility of compound in aqueous buffer at pH 6.5 at 25 degreeC by reversed phase-HPLC analysis

[38] = Chemical stability of compound in 0.1 M HCl at pH 1 at 37 degreeC assessed as half life measured for 24 hrs by reversed phase-HPLC analysis; type: physicochemical
[39] = Chemical stability of compound in acetate buffer at pH 4 at 37 degreeC assessed as half life measured for 24 hrs by reversed phase-HPLC analysis; type: physicochemical
[40] = Chemical stability of compound in phosphate buffer at pH 6.5 at 37 degreeC assessed as half life measured for 24 hrs by reversed phase-HPLC analysis; type: physicochemical
[41] = Prodrug conversion in Pentagastrine-pretreated Sprague-Dawley rat assessed as Cmax of 6-(cyclopropanecarboxamido)-4-((2-methoxy-3-(2-methyl-2H-tetrazol-5-yl)phenyl)amino)-N-(methyl-d3)nicotinamide metabolite at 10 mg/kg, po measured for 24 hrs by UPLC-MS/MS analysis; type: ADME, organism-based; conditions: in vivo
[42] = Prodrug conversion in Famotidine-pretreated Sprague-Dawley rat assessed as Cmax of 6-(cyclopropanecarboxamido)-4-((2-methoxy-3-(2-methyl-2H-tetrazol-5-yl)phenyl)amino)-N-(methyl-d3)nicotinamide metabolite at 10 mg/kg, po measured for 24 hrs by UPLC-MS/MS analysis; type: ADME, organism-based; conditions: in vivo
[43] = Prodrug conversion in Pentagastrine-pretreated Sprague-Dawley rat assessed as Tmax of 6-(cyclopropanecarboxamido)-4-((2-methoxy-3-(2-methyl-2H-tetrazol-5-yl)phenyl)amino)-N-(methyl-d3)nicotinamide metabolite at 10 mg/kg, po measured for 24 hrs by UPLC-MS/MS analysis; type: ADME, organism-based; conditions: in vivo
[44] = Prodrug conversion in Famotidine-pretreated Sprague-Dawley rat assessed as Tmax of 6-(cyclopropanecarboxamido)-4-((2-methoxy-3-(2-methyl-2H-tetrazol-5-yl)phenyl)amino)-N-(methyl-d3)nicotinamide metabolite at 10 mg/kg, po measured for 24 hrs by UPLC-MS/MS analysis; type: ADME, organism-based; conditions: in vivo
[45] = Prodrug conversion in Pentagastrine-pretreated Sprague-Dawley rat assessed as AUC (total) of 6-(cyclopropanecarboxamido)-4-((2-methoxy-3-(2-methyl-2H-tetrazol-5-yl)phenyl)amino)-N-(methyl-d3)nicotinamide metabolite at 10 mg/kg, po measured for 24 hrs by UPLC-MS/MS analysis; type: ADME, organism-based; conditions: in vivo
[46] = Prodrug conversion in Famotidine-pretreated Sprague-Dawley rat assessed as AUC (total) of 6-(cyclopropanecarboxamido)-4-((2-methoxy-3-(2-methyl-2H-tetrazol-5-yl)phenyl)amino)-N-(methyl-d3)nicotinamide metabolite at 10 mg/kg, po measured for 24 hrs by UPLC-MS/MS analysis; type: ADME, organism-based; conditions: in vivo

logP [1]: 2.7
pKa [2]: 4.8
solubility [3]: 2020 µg/mL (≈ 4750 µM)
solubility [4]: 1680 µg/mL (≈ 3950 µM)
solubility [5]: 17 µg/mL (≈ 40 µM)
solubility [6]: 5 µg/mL (≈ 11.8 µM)
solubility [7]: < 1 µg/mL
solubility [8]: < 1 µg/mL
solubility [9]: < 1 µg/mL
solubility [10]: 57 µg/mL (≈ 134 µM)
solubility [11]: 8 µg/mL (≈ 18.8 µM)
Papp A→B [12]: 6.7 ×10⁻⁶ cm/s
efflux ratio [13]: 8.2
Papp [14]: ~60 ×10⁻⁶ cm/s
fraction unbound [15]: 0.1
fraction unbound [16]: 0.07
fraction unbound [17]: 0.08
IC50 [18]: 23 nM
bioavailability [19]: 100%
bioavailability [20]: 50%
bioavailability [21]: 100%
bioavailability [22]: 63%
Cmax [23]: 4.8 µM
Cmax [24]: 8.6 µM
Cmax [25]: 770 nM
Tmax [26]: 1.1 h
Tmax [27]: 0.9 h
Tmax [28]: 2.5 h
AUC at 24 h [29]: 18.4 µM·h
AUC at 24 h [30]: 46 µM·h
AUC at 24 h [31]: 7.8 µM·h
bioavailability [32]: 36%
bioavailability [33]: 91%
bioavailability [34]: 15.4%
solubility [35]: 2020 µg/mL (≈ 4750 µM)
solubility [36]: 5 µg/mL (≈ 11.8 µM)
solubility [37]: 1 µg/mL (≈ 2.35 µM)
SMILES: [2H]C([2H])([2H])NC(=O)c1cnc(NC(=O)C2CC2)cc1Nc1cccc(-c2nnn(C)n2)c1OC

SMILES: [2H]C([2H])([2H])NC(=O)c1cn(COC(=O)c2ccc(OP(=O)(O)O)c(OC)c2)/c(=N/C(=O)C2CC2)cc1Nc1cccc(-c2nnn(C)n2)c1OC
half-life [38]: > 20.8 days
half-life [39]: 8.96 days
half-life [40]: 3.5 days
solubility [35]: < 1 µg/mL
solubility [36]: 58 µg/mL (≈ 84.6 µM)
solubility [37]: 1000 µg/mL (≈ 1460 µM)

half-life [38]: > 20.8 days
half-life [39]: 15.7 days
half-life [40]: 7.38 days
Cmax [41]: 11.6 µM
Cmax [42]: 8.1 µM
Tmax [43]: 2.1 h
Tmax [44]: 2.5 h
AUC [45]: 79 µM·h
AUC [46]: 58 µM·h
solubility [35]: 10 µg/mL
solubility [36]: 1 µg/mL
solubility [37]: 1470 µg/mL
SMILES: [2H]C([2H])([2H])NC(=O)c1cn(COP(=O)([O-])[O-])/c(=N/C(=O)C2CC2)cc1Nc1cccc(-c2nnn(C)n2)c1OC.[Na+].[Na+]

solubility [35]: 1 µg/mL
solubility [36]: 2 µg/mL
solubility [37]: 141 µg/mL
SMILES: NC(CO)(CO)CO.[2H]C([2H])([2H])NC(=O)c1cn(COP(=O)(O)O)/c(=N/C(=O)C2CC2)cc1Nc1cccc(-c2nnn(C)n2)c1OC

Cmax [24]: 7.1 µM
Cmax [25]: 800 nM
Tmax [27]: 5.5 h
Tmax [28]: 4 h
AUC at 24 h [30]: 53.4 µM·h
AUC at 24 h [31]: 5.5 µM·h
SMILES: Cl.[2H]C([2H])([2H])NC(=O)c1cnc(NC(=O)C2CC2)cc1Nc1cccc(-c2nnn(C)n2)c1OC

half-life [38]: 13.9 days
half-life [39]: 13.9 days
half-life [40]: 5.42 days
solubility [35]: 1 µg/mL (≈ 1.49 µM)
solubility [37]: 1 µg/mL (≈ 1.49 µM)
SMILES: [2H]C([2H])([2H])NC(=O)c1cn(COC(=O)c2ccc(COP(=O)(O)O)cc2)/c(=N/C(=O)C2CC2)cc1Nc1cccc(-c2nnn(C)n2)c1OC

half-life [39]: 0.0292 days
half-life [40]: 2.99 days
solubility [37]: 2500 µg/mL
SMILES: [2H]C([2H])([2H])N(COP(=O)([O-])[O-])C(=O)c1cnc(NC(=O)C2CC2)cc1Nc1cccc(-c2nnn(C)n2)c1OC.[Na+].[Na+]

solubility [35]: 4 µg/mL
solubility [36]: 9 µg/mL
solubility [37]: 308 µg/mL
SMILES: NCCCC[C@H](N)C(=O)O.[2H]C([2H])([2H])NC(=O)c1cn(COP(=O)(O)O)/c(=N/C(=O)C2CC2)cc1Nc1cccc(-c2nnn(C)n2)c1OC

half-life [38]: 13.9 days
half-life [39]: 3 days
half-life [40]: 0.238 days
solubility [35]: 650 µg/mL
solubility [36]: 580 µg/mL
SMILES: CNCC(=O)OCc1cccnc1N(C)C(=O)OCn1cc(C(=O)NC)c(Nc2cccc(-c3nnn(C)n3)c2OC)c/c1=N\C(=O)C1CC1.Cl

SMILES: [2H]C([2H])([2H])NC(=O)c1cn(COC(=O)CC(C)(C)c2c(C)cc(C)cc2OP(=O)(O)O)/c(=N/C(=O)C2CC2)cc1Nc1cccc(-c2nnn(C)n2)c1OC
half-life [38]: 2.67 days
half-life [39]: 11.4 days
half-life [40]: 0.321 days
solubility [35]: 22 µg/mL (≈ 29.7 µM)
solubility [36]: 44 µg/mL (≈ 59.5 µM)
